Measurements published in patent publication EP4640234A1, “PHARMACEUTICAL COMPOSITION FOR PREVENTING OR TREATING GRAFT-VERSUS-HOST DISEASE CONTAINING GLP-2 DERIVATIVE OR LONG-ACTING CONJUGATE THEREOF” (Hanmi Pharm. Co., Ltd., priority 2022, dated 2024).

Tested on: SR-GVHD model induced by allogeneic transplantation
Assay: SR-GVHD mouse allogeneic transplantation model, switching from steroid to conjugate (Example 4)
Type: in vivo, BALB/C mice (recipients)
Conditions: Group 2: Apraglutide 469 µg/kg once every other day, subcutaneously, from 3 days after splenocyte injection; excipient group 21.4%; FIG. 4
Procedure: In order to construct a mouse allogeneic transplantation model as a graft-versus-host disease (GVHD) model, female donor mice C57BL/6j were purchased from OrientBio (Korea), and female recipient mice BALB/C were purchased from DBL (Korea). The mice were raised in a sterile environment with a 12-h light/dark cycle. Food and water were provided ad libitum, and all procedures were performed under the approval of the Animal Experimentation Committee.
In order to mobilize hematopoietic stem cells (HSCs) into peripheral blood from 13-week-old C57BL/6j mice (donors), 10 µg of G-CSF (granulocyte-colony stimulating factor) (PeproTech, USA) was injected subcutaneously for 5 days, and then 1.5 × 10^7 splenocytes were collected. The 1.5 × 10^7 splenocytes (200 µL volume) were injected into BALB/C mice (recipients) through the tail vein. […]
The numerical value expressed as the dose of the GLP-2 derivative long-acting conjugate herein is based on the value acquired by excluding the mass of the polyethylene glycol linker moiety from the total mass of the GLP-2 derivative long-acting conjugate used, that is, the sum of the masses of only the polypeptide moieties.
The onset signs were evaluated using the same criteria as in Table 3, the survival rate was determined, and the small intestine and colon tissues were harvested and pathological changes were observed.

Substance: Apraglutide
- survival rate on day 25: 35.7%
